{"source": "paper PMC10610095", "about": "(Pharmaceuticals, 2023)", "key": {"GPR44": {"tested_on": "GPR44", "parameters": "method as in PMID 30557325", "conditions": "clinical trial, orally administered; cited from earlier work"}, "GPR44 (1.1 B4 tumor)": {"biological_target": "T1, GPR44 (1.1 B4 tumor) (Homo sapiens, UniProt Q9Y5Y4)", "T1 construct": "1.1 B4 cells were implanted into NOD/SCID mice to generate GPR44-expressing mouse models; endogenous in cells; host or cells: human 1.1 B4 hybrid cell line (human pancreatic islet culture x PANC-1), subcutaneous xenograft in NOD/SCID mice", "T1 sequence (Q9Y5Y4 1-395)": "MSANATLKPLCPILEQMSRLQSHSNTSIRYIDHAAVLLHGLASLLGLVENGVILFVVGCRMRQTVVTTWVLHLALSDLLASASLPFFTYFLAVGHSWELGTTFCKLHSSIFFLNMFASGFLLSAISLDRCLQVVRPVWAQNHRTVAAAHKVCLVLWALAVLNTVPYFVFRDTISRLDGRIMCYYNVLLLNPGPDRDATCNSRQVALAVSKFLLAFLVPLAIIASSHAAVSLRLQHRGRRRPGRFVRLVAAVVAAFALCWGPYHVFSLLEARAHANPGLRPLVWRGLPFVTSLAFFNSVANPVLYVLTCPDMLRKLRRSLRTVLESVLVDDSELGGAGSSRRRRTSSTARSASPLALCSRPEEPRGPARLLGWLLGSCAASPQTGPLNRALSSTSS", "experiment": "Biodistribution in NOD/SCID mice implanted with 1.1 B4 cells, with and without blocking agent", "format": "in vivo", "conditions": "30 min p.i.; for pancreas uptake: 1.1 B4 model; for tumor uptake: 1.1 B4 tumor", "procedure": "NOD/SCID mice (n = 24) were subcutaneously injected with 1.1 B4 cells above their shoulders. Tumors were established 17–21 d after injection.\n(§1) Under general anesthesia, NOD/SCID mice were administered doses of tracer (~3.7 MBq) intravenously through the tail vein, then the animals were euthanized at 30 min post-injection. Organs/tissues/tumors of interest were harvested, weighed, and gamma-counted. Radioactive uptakes were calculated and reported as percentage of injected dose per gram (% ID/g) for each organ/tissue/tumor."}, "[1]": {"biological_target": "T2, GPR44 (transplanted human islets) (Homo sapiens, UniProt Q9Y5Y4)", "T2 construct": "Only transplanted human islets were targeted by the GPR44 radio-probes; tissue Southern California Islet Cell Resources Center; host or cells: human pancreatic islets from healthy adult donors, 500 IEQ transplanted into the renal capsule of NOD/SCID mice", "T2 sequence (Q9Y5Y4 1-395)": "T1 sequence (Q9Y5Y4 1-395)", "experiment": "Biodistribution in NOD/SCID mice with transplanted human islets in a renal capsule", "format": "in vivo", "conditions": "500 IEQ human islets, 30 min p.i., two individual mice", "procedure": "A procedure similar to that of the above murine biodistribution was performed in this biodistribution study. Mice were euthanized at 30 min post-injection, and the organs/tissues of interest were collected.\nHuman islets with diameters of less than 250 µm were used for transplantation. A total of 500 IEQ human islets were transplanted into the renal capsule of NOD/SCID mice (n = 5) using a well-established standard procedure.\nas §1, with “Organs/tissues/islets” for “Organs/tissues/tumors”, “organ/tissue/islet.” for “organ/tissue/tumor.”"}, "[2]": {"experiment": "Biodistribution in healthy control NOD/SCID mice", "format": "in vivo", "conditions": "i.v.", "procedure": "The uptake of the tracer in the kidney was ~4.00 ± 0.80% ID/g at 30 min p.i, 2.11 ± 1.06% ID/g at 60 min p.i., and 1.33 ± 0.47% ID/g at 90 min p.i. […] Low tracer uptake levels were common in the majority of organs, excluding excretion organs such as the liver. […] Of the time points, 30 min post-injection was chosen to evaluate the next specific GPR44 mouse models.\nThe biodistribution of [^18F]TM30089 was investigated in healthy NOD/SCID mice at various time points post-injection. Three time points (30 min, 60 min, or 90 min post-injection) and one blocking time point (30 min post-injection) were selected in the biodistribution (n = 4/each group). […] Under general anesthesia, NOD/SCID mice were administered doses of tracer (~3.7 MBq) intravenously through the tail vein. At the above-specified time points, the animals were euthanized, and the organs/tissues of interest were harvested. Organs/tissues were weighed, and the gamma was counted. Radioactive uptakes were calculated and reported as percentage of injected dose per gram (% ID/g) for each organ."}, "[3]": {"tested_on": "GPR44 vs thromboxane receptor (TP)", "parameters": "method as in PMID 15179446", "conditions": "cited from earlier work"}, "TP": {"tested_on": "TP", "parameters": "method as in PMID 33800801", "conditions": "cited from earlier work"}, "DP1": {"tested_on": "DP1", "parameters": "method as in PMID 33800801", "conditions": "cited from earlier work"}}, "note": "Several values for one entry are separate records, joined by “and”; a condition that tells them apart may be missing. Equal values may be shown once."}
{"smiles": "CC(=O)Nc1cccc2c1c(Sc1ccc(Cl)cc1)c(C)n2CC(=O)O", "note": "[AZD1981]", "values": [{"measurement": "improvement in insulin secretion", "setting": "GPR44", "result": "did not show a significant improvement in insulin secretion"}]}
{"smiles": "CN(C1CCc2c(c3ccccc3n2CC(=O)O)C1)S(=O)(=O)c1ccc([18F])cc1", "note": "(stereo not shown) [[^18F]TM-30089]", "values": [{"measurement": "pancreas uptake", "setting": "GPR44 (1.1 B4 tumor); blocked group (cold TM30089 1 mg/kg)", "result": "0.26 ± 0.05", "unit": "% ID/g"}, {"measurement": "pancreas uptake", "setting": "GPR44 (1.1 B4 tumor); non-blocked group", "result": "0.38 ± 0.04", "unit": "% ID/g"}, {"measurement": "tumor uptake", "setting": "GPR44 (1.1 B4 tumor); blocked with cold TM30089 (1 mg/kg)", "result": "0.24 ± 0.02", "unit": "% ID/g"}, {"measurement": "tumor uptake", "setting": "GPR44 (1.1 B4 tumor); non-blocked", "result": "27.81 ± 1.71", "unit": "% ID/g"}, {"measurement": "uptake in human islets transplanted into a kidney capsule", "setting": "[1]", "result": "10.87 % ID/g and 6.21 % ID/g"}, {"measurement": "uptake in other organs (heart, lung, pancreas, spleen)", "setting": "[2]", "result": "low uptakes"}, {"measurement": "kidney uptake", "setting": "[2]; 30 min p.i.", "result": "~ 4.00 ± 0.80 % ID/g"}, {"measurement": "liver uptake", "setting": "[2]; 30 min p.i.", "result": "15.31 ± 0.16", "unit": "% ID/g"}, {"measurement": "small intestine uptake", "setting": "[2]; 30 min p.i.", "result": "10.67 ± 2.13", "unit": "% ID/g"}, {"measurement": "kidney uptake", "setting": "[2]; 60 min p.i.", "result": "2.11 ± 1.06", "unit": "% ID/g"}, {"measurement": "liver uptake", "setting": "[2]; 60 min p.i.", "result": "8.76 ± 1.60", "unit": "% ID/g"}, {"measurement": "small intestine uptake", "setting": "[2]; 60 min p.i.", "result": "10.14 ± 0.47", "unit": "% ID/g"}, {"measurement": "kidney uptake", "setting": "[2]; 90 min p.i.", "result": "1.33 ± 0.47", "unit": "% ID/g"}, {"measurement": "liver uptake", "setting": "[2]; 90 min p.i.", "result": "6.62 ± 0.57", "unit": "% ID/g"}, {"measurement": "small intestine uptake", "setting": "[2]; 90 min p.i.", "result": "9.90 ± 0.26", "unit": "% ID/g"}]}
{"smiles": "O=C(O)CCn1c2c(c3ccccc31)C[C@H](NS(=O)(=O)c1ccc(F)cc1)CC2", "note": "[ramatroban]", "values": [{"measurement": "selectivity for GPR44 than for TP (times less)", "setting": "[3]", "result": "approximately 16 times"}]}
{"smiles": "CN(C1CCc2c(c3ccccc3n2CC(=O)O)C1)S(=O)(=O)c1ccc(F)cc1", "note": "(stereo not shown) [TM-30089, {3-[(4-fluoro-benzenesulfonyl)methyl-amino]-1,2,3,4-tetrahydro-carbazol-9-yl}acetic acid]", "values": [{"measurement": "off-target binding to TP", "setting": "TP", "result": "negligible off-target binding"}, {"measurement": "off-target binding to DP1", "setting": "DP1", "result": "negligible off-target binding"}]}
